Several values for one entry are separate records, joined by “and”; a condition that tells them apart may be missing. Equal values may be shown once.
Key:
[1] = xn = mol fraction of the nth substance listed; conditions: 298.15 K, 101 kPa, Liquid; for electrical conductivity: Alternating current cell with electrodes; for mass density: Vibrating tube method
[2] = 298.15 K, 101 kPa, Liquid; for electrical conductivity: Alternating current cell with electrodes; for mass density: Vibrating tube method

CCCCCCn1cc[n+](C)c1.F[B-](F)(F)F [1-hexyl-3-methylimidazolium tetrafluoroborate] + CC#N
[1]
Conditions	electrical conductivity [S/m]	mass density [kg/m3]
x1 = 0.004117	0.838	784.24
x1 = 0.008445	1.442	791.63
x1 = 0.01744	2.35	806.26
x1 = 0.03816	3.51	836.42
x1 = 0.06486	4.13	869.76
x1 = 0.09763	4.25	903.86
x1 = 0.1399	3.96	939.67
x1 = 0.1943	3.37	975.94
x1 = 0.2712	2.53	1014.86
x1 = 0.3907	1.543	1056.74
x1 = 0.5902	0.656	1100.45
x1 = 0.7435	0.344	1122.12
x1 = 0.8889	0.192	1137.2
x1 = 1	0.1228	1146.34

CC1COC(=O)O1 (stereo unspecified) [4-methyl-1,3-dioxolan-2-one] + CCCCn1cc[n+](C)c1.F[B-](F)(F)F
[1]
Conditions	electrical conductivity [S/m]	mass density [kg/m3]
x2 = 0.02318	0.537	1201.32
x2 = 0.04836	0.873	1202.51
x2 = 0.1028	1.23	1204.3
x2 = 0.1601	1.346	1205.43
x2 = 0.2277	1.332	1206.17
x2 = 0.3056	1.229	1206.51
x2 = 0.407	1.05	1206.44
x2 = 0.5126	0.875	1206.03
x2 = 0.6192	0.715	1205.48
x2 = 0.7173	0.593	1204.39
x2 = 0.8497	0.463	1203.39

CCCCn1cc[n+](C)c1.F[B-](F)(F)F [1-butyl-3-methylimidazolium tetrafluoroborate] + C[S+](C)[O-]
[1]
Conditions	electrical conductivity [S/m]	mass density [kg/m3]
x1 = 0.01925	0.687	1101.56
x1 = 0.03427	1.029	1106.21
x1 = 0.07837	1.56	1117.8
x1 = 0.1247	1.715	1128.31
x1 = 0.1866	1.67	1139.5
x1 = 0.2554	1.502	1150.71
x1 = 0.3251	1.31	1159.4
x1 = 0.4423	1.015	1171.71
x1 = 0.5246	0.854	1178.2
x1 = 0.6132	0.711	1184.27
x1 = 0.7494	0.543	1192.13

CCCCn1cc[n+](C)c1.F[P-](F)(F)(F)(F)F [1-butyl-3-methylimidazolium hexafluorophosphate]
[2]
Conditions	electrical conductivity [S/m]	mass density [kg/m3]
–	0.147	1368.32

CCCCn1cc[n+](C)c1.N#CN=C=[N-] [1-butyl-3-methylimidazolium dicyanamide]
[2]
Conditions	electrical conductivity [S/m]	mass density [kg/m3]
–	1.139	1059.12

CCCCn1cc[n+](C)c1.F[B-](F)(F)F [1-butyl-3-methylimidazolium tetrafluoroborate] + ClCCl
[1], x1 = 1
Conditions	electrical conductivity [S/m]	mass density [kg/m3]
–	0.353	1202.19

CCCCn1cc[n+](C)c1.F[B-](F)(F)F [1-butyl-3-methylimidazolium tetrafluoroborate]
[2]
Conditions	electrical conductivity [S/m]	mass density [kg/m3]
–	0.353	1202.19

CCCCCCn1cc[n+](C)c1.F[B-](F)(F)F [1-hexyl-3-methylimidazolium tetrafluoroborate] + O
[1]
Conditions	electrical conductivity	mass density
x1 = 0.0007116	0.327 S/m	998.06 kg/m3
x1 = 0.001428	0.567 S/m	999.52 kg/m3
x1 = 0.001482	0.608 S/m	999.64 kg/m3
x1 = 0.002238	0.854 S/m	1001.24 kg/m3
x1 = 0.00296	1.05 S/m and 1.06 S/m	1002.63 kg/m3 and 1002.7 kg/m3
x1 = 0.003642	1.225 S/m	1003.94 kg/m3
x1 = 0.00447	1.411 S/m	1005.24 kg/m3
x1 = 0.004747	1.47 S/m	1005.61 kg/m3
x1 = 0.2816	2.03 S/m	1113.63 kg/m3
x1 = 0.314	1.829 S/m	1116.76 kg/m3
x1 = 0.3441	1.66 S/m	1119.43 kg/m3
x1 = 0.3813	1.46 S/m	1122.43 kg/m3
x1 = 0.4148	1.29 S/m	1124.75 kg/m3
x1 = 0.5139	0.898 S/m	1130.58 kg/m3
x1 = 0.5161	0.885 S/m	1130.73 kg/m3
x1 = 0.7069	0.417 S/m	1138.7 kg/m3
x1 = 1	0.1228 S/m	1146.34 kg/m3

CCCCn1cc[n+](C)c1.F[P-](F)(F)(F)(F)F [1-butyl-3-methylimidazolium hexafluorophosphate] + CC#N
[1]
Conditions	electrical conductivity [S/m]	mass density [kg/m3]
x1 = 0.007571	1.49	795.63
x1 = 0.01576	2.54	815.17
x1 = 0.02489	3.39	835.56
x1 = 0.03448	4.05	855.89
x1 = 0.05838	5	901.77
x1 = 0.08779	5.39	950.71
x1 = 0.1261	5.27	1004.47
x1 = 0.1772	4.68	1062.7
x1 = 0.2521	3.63	1128.61
x1 = 0.3649	2.3	1199.71
x1 = 0.5591	0.995	1278.14
x1 = 0.7291	0.469	1321.97
x1 = 0.8729	0.253	1349.76
x1 = 1	0.147	1368.32

CCn1cc[n+](C)c1.F[B-](F)(F)F [1-ethyl-3-methylimidazolium tetrafluoroborate]
[2]
Conditions	electrical conductivity [S/m]	mass density
–	1.55	1283.7 kg/m3 and 1283.7 kg/m3 and 1280.38 kg/m3

ClCCl [dichloromethane] + CCCCn1cc[n+](C)c1.F[B-](F)(F)F
[1]
Conditions	electrical conductivity [S/m]	mass density [kg/m3]
x2 = 0.00755	0.0602	1316.6
x2 = 0.01921	0.2	1314.92
x2 = 0.02714	0.31	1313.4
x2 = 0.03878	0.436	1311.8
x2 = 0.07987	0.98	1304.97
x2 = 0.1395	1.427	1294.06
x2 = 0.194	1.55	1284.29
x2 = 0.2674	1.607	1271.96
x2 = 0.3355	1.53	1261.43
x2 = 0.4787	1.209	1242.95
x2 = 0.6019	0.93	1230.33
x2 = 0.773	0.62	1216.18
x2 = 0.8496	0.511	1211.19
x2 = 0.9107	0.441	1207.46

CCCCn1cc[n+](C)c1.F[B-](F)(F)F [1-butyl-3-methylimidazolium tetrafluoroborate] + O
[1]
Conditions	electrical conductivity [S/m]	mass density [kg/m3]
x1 = 0.005053	1.72	1007
x1 = 0.008751	2.47	1013.47
x1 = 0.01927	3.59	1030.78
x1 = 0.03304	4.46	1047.81
x1 = 0.04969	4.9	1065.19
x1 = 0.07385	5.17	1084.47
x1 = 0.1053	5.21	1103.47
x1 = 0.1566	4.93	1124.77
x1 = 0.1991	4.55	1137.3
x1 = 0.2824	3.71	1154.46
x1 = 0.414	2.57	1171.08
x1 = 0.4919	2.04	1177.86
x1 = 0.5749	1.57	1183.94
x1 = 0.6838	1.1	1190.14
x1 = 0.7594	0.846	1193.53
x1 = 0.8931	0.527	1198.74
x1 = 1	0.353	1202.19

CCn1cc[n+](C)c1.F[B-](F)(F)F [1-ethyl-3-methylimidazolium tetrafluoroborate] + O
[1]
Conditions	electrical conductivity [S/m]	mass density [kg/m3]
x1 = 0.004746	1.87	1007.69
x1 = 0.01001	3.26	1018.31
x1 = 0.02226	5.35	1040.22
x1 = 0.03637	6.81	1061.36
x1 = 0.05733	8.08	1087.31
x1 = 0.08102	8.84	1110.93
x1 = 0.115	9.24	1136.45
x1 = 0.174	9.08	1168.6
x1 = 0.2564	8.13	1198.61
x1 = 0.419	5.99	1233.28
x1 = 1	1.55	1283.7

CCCCCCn1cc[n+](C)c1.F[B-](F)(F)F [1-hexyl-3-methylimidazolium tetrafluoroborate]
[2]
Conditions	electrical conductivity [S/m]	mass density [kg/m3]
–	0.1228	1146.34

CCCCn1cc[n+](C)c1.N#CN=C=[N-] [1-butyl-3-methylimidazolium dicyanamide] + O
[1]
Conditions	electrical conductivity [S/m]	mass density [kg/m3]
x1 = 0.009639	2.02	1003.22
x1 = 0.02791	3.49	1011.25
x1 = 0.05432	4.43	1019.63
x1 = 0.07995	4.8	1025.43
x1 = 0.1112	4.9	1031.05
x1 = 0.1933	4.47	1040.01
x1 = 0.3214	3.55	1047.31
x1 = 0.4686	2.71	1051.86
x1 = 0.6386	2	1055.38
x1 = 0.8742	1.37	1058.33
x1 = 1	1.139	1059.12

CCCCn1cc[n+](C)c1.F[B-](F)(F)F [1-butyl-3-methylimidazolium tetrafluoroborate] + CO
[1]
Conditions	electrical conductivity [S/m]	mass density [kg/m3]
x1 = 0.007409	0.867	802.48
x1 = 0.01543	1.45	818.28
x1 = 0.02435	1.97	834.29
x1 = 0.03355	2.4	849.76
x1 = 0.05717	3.3	885.02
x1 = 0.08589	3.81	921.13
x1 = 0.1242	4.18	961.01
x1 = 0.1755	4.26	1002.48
x1 = 0.248	3.92	1046.31
x1 = 0.3624	3.09	1094.85
x1 = 0.5583	1.76	1145.28

CCn1cc[n+](C)c1.F[B-](F)(F)F [1-ethyl-3-methylimidazolium tetrafluoroborate] + CC#N
[1]
Conditions	electrical conductivity [S/m]	mass density
x1 = 0.008411	1.58	791.26 kg/m3
x1 = 0.01082	1.9	795.48 kg/m3
x1 = 0.01528	2.46	802.59 kg/m3
x1 = 0.01646	2.55	804.68 kg/m3
x1 = 0.02252	3.13	814.3 kg/m3
x1 = 0.02253	3.14	813.87 kg/m3
x1 = 0.04929	4.89	853.38 kg/m3
x1 = 0.04942	4.94	854.17 kg/m3
x1 = 0.08059	6.03	893.87 kg/m3
x1 = 0.1007	6.5	916.26 kg/m3
x1 = 0.1218	6.72	939.88 kg/m3
x1 = 0.1433	6.94	960.07 kg/m3
x1 = 0.1736	6.92	988.57 kg/m3
x1 = 0.2043	6.91	1012.5 kg/m3
x1 = 0.2371	6.65	1038.16 kg/m3
x1 = 0.2778	6.41	1063.36 kg/m3
x1 = 0.3264	5.9	1093.25 kg/m3
x1 = 0.384	5.41	1120.11 kg/m3
x1 = 0.4565	4.64	1153.25 kg/m3
x1 = 0.4888	4.44	1163.04 kg/m3
x1 = 0.6478	3.2	1211.72 kg/m3
x1 = 0.652	3.1	1215.55 kg/m3
x1 = 0.759	2.54	1237.95 kg/m3
x1 = 0.8336	2.11	1255.87 kg/m3
x1 = 0.8902	1.95	1263.01 kg/m3
x1 = 1	1.55	1283.7 kg/m3 and 1280.38 kg/m3

From the NIST ThermoML archive (doi:10.1021/je800468h)
